Data set [1] in a line: MTT cell viability assay in A549 cells. Type of data set: cell-based. Conditions: human. A general note: Tetrazolium assays rely on reduction of a dye to a coloured formazan, in cell work by metabolically active cells.
The test system of data set [2] is SARS-CoV-2 pseudovirus. The experiment in a line: microbe, parasite or virus in culture. Conditions: Severe acute respiratory syndrome-related coronavirus, Huh-7, read-out: EC50, inhibition of SARS-CoV-2 pseudovirus infection.
Data set [3] can be described thus: MTT cell viability assay in Huh7 cells. Type of data set: cell-based. Conditions: human.
Data set [4] concerns the target CTSL protein prepared from human liver tissue (Homo sapiens, UniProt P07711). The experiment in a line: biochemical. The note with it: for inhibition at 100 µM: read-out: inhibition against CTSL (inhibition efficiency).
In data set [5] the test system is SARS-CoV-2 pseudovirus. The experiment in a line: microbe, parasite or virus in culture. Conditions: Severe acute respiratory syndrome-related coronavirus, A549, read-out: EC50, inhibition of SARS-CoV-2 pseudovirus infection.
The test system of data set [6] is SARS-CoV-2 pseudovirus.

Usually CC50 stands for the concentration giving 50% cytotoxicity. Read a high CC50 as lower toxicity to the cells. The EC50 is the concentration needed to bring the measured effect to its halfway point. Broadly, the IC50 is the concentration at which inhibition is half-maximal. High values mean a need for much substance, low ones inhibition by little substance. For orientation: inhibition means the share of the control response that was lost under treatment.

Where two headings read alike, the source gives them in different places. Where a SMILES comes first, the peptide text is derived from it. [ ]: non-standard residue; d: D form. The star is where a group is joined. Nle = CCCC[CH](N)C(=O)O; Cbz = O=C(OCc1ccccc1)*

Sequence of CTSL protein prepared from human liver tissue (P07711 114-288 limits assumed): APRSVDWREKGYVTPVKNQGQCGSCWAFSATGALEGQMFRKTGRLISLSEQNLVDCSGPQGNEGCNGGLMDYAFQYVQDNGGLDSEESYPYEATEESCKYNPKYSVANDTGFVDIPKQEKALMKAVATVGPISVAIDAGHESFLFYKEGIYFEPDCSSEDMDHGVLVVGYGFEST
Sequence of CTSL protein prepared from human liver tissue (P07711 292-333 limits assumed): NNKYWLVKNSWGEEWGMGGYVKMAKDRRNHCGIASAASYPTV

On to `CCCCC(C=O)NC(=O)C(CC(C)C)NC(=O)C(CC(C)C)NC(C)=O` (stereo not drawn) [Mg-101] (Ac-Leu-Leu-[Nle]-aldehyde; configuration not given here), for which the CC50 at 24 h in data set [1] worked out at 355 µM; in data set [3], 64.3 µM. Moreover, the EC50 with SARS-CoV-2 pseudovirus [2] came out at 3.12 µM; in the data set with SARS-CoV-2 pseudovirus [5], 1.15 µM. The same compound displayed an IC50 in data set [4] of less than 0.008 µM. For the same compound, the inhibition at 100 µM in data set [4] was greater than 90%.
On to `CC(C)C[C@@H](C=O)NC(=O)[C@H](CC(C)C)NC(=O)[C@H](CC(C)C)NC(=O)OCc1ccccc1` [Mg-132] (Cbz-Leu-Leu-Leu-aldehyde), for which the CC50 at 24 h in data set [1] was greater than 200 µM; in data set [3] it was 100 µM. The EC50 was 0.212 µM in the data set with SARS-CoV-2 pseudovirus [2] and 0.159 µM in the data set on SARS-CoV-2 pseudovirus [5]. For the same compound, the inhibition at 100 µM in data set [4] was greater than 90%.
With `CC(NC(=O)C(Cc1ccccc1)NC(=O)OCc1ccccc1)C(=O)CF` (centres unmarked) [Z-FA-FMK], the CC50 at 24 h is greater than 400 µM in data set [1] and 328 µM in data set [3]. The results for the EC50 in the data set with SARS-CoV-2 pseudovirus [2] and in the data set on SARS-CoV-2 pseudovirus [5] were 0.701 µM and 1.13 µM, respectively. In data set [4], this compound registered an IC50 of 0.0549 µM. Also, the inhibition at 100 µM in data set [4] was greater than 90%.
For the compound `CC1(C)CCC2=C(O1)c1ccccc1C(=O)C2=O` [beta-lapachone], the “SI (selectivity index, ratio of CC50 and EC50)” value in the data set on SARS-CoV-2 pseudovirus [6] was 9.31. For the same compound, in the data set on SARS-CoV-2 pseudovirus [2], the concentration giving a half-maximal response (EC50) came out at 5.09 µM. In data set [3], this compound displayed a CC50 at 24 h of 47.4 µM. This compound also registered an IC50 in data set [4] greater than 100 µM.
Consider `CCCC[C@@H](C=O)NC(=O)[C@H](CC(C)C)NC(=O)OCc1ccccc1` [calpeptin], for which the values for the CC50 at 24 h in data set [1] and in data set [3] were 595 µM and 116 µM, respectively. Besides, the values for the half-maximal effective concentration (EC50) in the data set on SARS-CoV-2 pseudovirus [2] and in the data set on SARS-CoV-2 pseudovirus [5] were 29.8 µM and 34.8 µM, respectively. In data set [4], the inhibition at 100 µM was greater than 90%.
In the case of `CCCCCCCCCC(=O)N[C@@H](Cc1c[nH]c2ccccc12)C(=O)N[C@H](CC(N)=O)C(=O)N[C@@H](CC(=O)O)C(=O)N[C@@H]1C(=O)NCC(=O)N[C@@H](CCCN)C(=O)N[C@@H](CC(=O)O)C(=O)N[C@H](C)C(=O)N[C@@H](CC(=O)O)C(=O)NCC(=O)N[C@H](CO)C(=O)N[C@@H]([C@H](C)CC(=O)O)C(=O)N[C@@H](CC(=O)c2ccccc2N)C(=O)O[C@@H]1C` [daptomycin], the CC50 at 24 h in data set [1] was greater than 5000 µM; in data set [3], 3570 µM. In data set [4], this compound yielded a half-inhibitory concentration (IC50) of 7.87 µM.
Take `CC(=O)N[C@@H](CC(C)C)C(=O)N[C@@H](CC(C)C)C(=O)N[C@H](C=O)CCCNC(=N)N` [leupeptin hemisulfate]: the CC50 at 24 h in data set [1] and in data set [3] was greater than 5000 µM each time. Moreover, the EC50 worked out at 39.3 µM in the data set with SARS-CoV-2 pseudovirus [2] and 4.26 µM in the data set with SARS-CoV-2 pseudovirus [5]. In data set [4], this compound yielded a half-inhibitory concentration (IC50) of less than 0.008 µM. Besides, the inhibition at 100 µM in data set [4] is greater than 90%.

These data come from paper PMC9110316 (Computational and Structural Biotechnology Journal, 2022).
